In patent US9783518B2, “Therapeutic agent and treatment method for ameliorating uremia” (Toray Industries, Inc., priority 2005, dated 2017):
“Also recorded” adds a separate entry of the source.

How the values were obtained:
[1] = test system: cats with renal failure; assay: Body weight of cats with renal failure during administration; type: in vivo, cat
Experimental: (§1) […] The administration was conducted every day and continued basically for 6 months, and in cases where the owner desired, the administration was continued even after the test period. The Examples of the present invention include both cases where the dosing period was less than 6 months and more than 6 months.

[2] = test system: cats with chronic renal failure; assay: Adverse events during treatment of cats with chronic renal failure; type: in vivo, cat
Experimental: This pilot clinical test was performed after obtaining informed consent of the owners of the cats (clients) before the start of the test, wherein the clients received explanations about the fact that beraprost sodium had already been approved as a drug for human chronic artery obstruction and had already been marketed, and about the safety thereof. Further, giving first priority to the benefit of the patients and clients, conventional therapeutic methods were also combined appropriately for the individuals with progressed renal failure. Examples of the concomitant drugs employed include synthetic active carbons such as Covalzin, Kremezin and Nefguard; calcium preparations such as calcium carbonate; formula meals such as k/d and low-protein diets; and infusion solutions. However, in cases where there was a rational reason and consent by the owner was obtained, beraprost sodium alone was administered even to the individual with progressed renal failure. On the other hand, drugs thought to influence on the action of beraprost sodium, such as vasodilators (e.g., enalapril), diuretic (e.g., furosemide), drugs which influence on renal blood flow (e.g., dopamine) and steroids (e.g., prednisolone) were not used.
as §1

[3] = test system: dog with chronic renal failure; assay: Clinical score of uremic symptoms in dog with chronic renal failure (Case-H); type: in vivo
Experimental: Testing methods for the patients showing uremia caused by chronic renal failure, employed in Example 4 or later, will now be described. The criteria and evaluation items for the cats and dogs with chronic renal failure are as follows: Diagnosis of uremia and chronic renal failure were performed totally taking clinical findings (including findings of uremia) and the results of the blood test, blood biochemical analysis and urinalysis into consideration. As the clinical findings of uremia, existence and degree of polydipsia and diuresis, dehydration, anorexia, weight loss, vomiting symptom and state of dehydration were observed. Existence of chronic renal failure was judged based on the serum Cre value as generally employed. As reference data for grasping the degree of progress of chronic renal failure, BUN value was also monitored.
Evaluation of degree of improvement of the uremic symptoms was carried out as follows: From the clinical symptoms related to uremia, activity and appetite, which are unlikely to be overlooked and which can be observed universally from before to after the test period, were selected. […] The evaluation was carried out based on the total points (full points were 5 points). Thus, a higher point indicates more improvements in the clinical symptoms. […]

[4] = test system: dog with chronic renal failure; assay: BUN and serum Cre in dog with chronic renal failure (Case-H); type: in vivo; details: 150 μg/capsule oral twice a day alone
Experimental: In the blood test, RBC, WBC, PCV, Hg and PLT were measured. In the blood biochemical analysis, TP, Tcho, AST, ALT, ALP, Tbil, BUN, creatinine, calcium, inorganic phosphorus, glucose, sodium ion, potassium ion and chloride ion were measured. In the urinalysis, protein amount, pH, occult blood, bilirubin and glucose were measured. To eliminate the circadian rhythm and influence by meals on the values of blood biochemical markers, every blood collection was carried out in the morning before feeding (at fasting).
As a more specific criterion for chronic renal failure in cats and dogs in the present Examples, a serum Cre value of 1.4 mg/dL in the blood test was employed. Serum Cre value was measured by creatinine deaminase-amidohydrolase method, and the BUN value as reference data for grasping the degree of progress of chronic renal failure was measured by urease-GLDH method.

[5] = test system: dog with chronic renal failure; assay: Adverse events in dog with chronic renal failure (Case-H); type: in vivo; details: 150 μg/capsule oral twice a day alone
Experimental: The subject patient to whom beraprost sodium was to be administered was a female dog (hybrid) of 14 years old with a body weight of 6.4 kg. The patient visited the hospital with chief complaints of anorexia and drastic decrease in activity. Based on the past history, clinical observations and results of clinical test, the dog was diagnosed as chronic renal failure. The clinical score at the first visit was as low as 2 points, and treatment with Covalzin at a dose of 200 mg/BID was started. […] In view of this, after obtaining consent by the client, treatment with Covalzin was stopped, and switched to administration of beraprost sodium alone. Beraprost sodium was diluted with polyethylene glycol (Wako) to attain a dose of 150 μg/capsule, and was divided into capsules (size 5 Shionogi Qualicaps). Beraprost sodium was orally administered twice a day at fasting. […] In the above-described series of therapy, feeding of a formula meal and infusion were not performed at all. […] Based on the above, it was first discovered that in chronic renal failure of dogs, in addition to cats, the effect of beraprost sodium to ameliorate uremic symptoms is clearly shown in spite of the fact that Serum Cre value and BUN value which are markers of renal function indicative of renal failure are continuously worsened.

[6] = test system: cats with chronic renal failure; assay: Blood biochemical analysis and urinalysis (BUN, serum Cre, glucose) in cats with chronic renal failure; type: in vivo, cat; details: Case-G; for Cre: 40 μg/head/BID
[7] = test system: rat glomerulonephritis models; details: prophylactic administration before the nephritis-inducing substance; cited from earlier work

CC#CC[C@@H](C)[C@H](O)/C=C/[C@@H]1[C@H]2c3cccc(CCCC(=O)[O-])c3O[C@H]2C[C@H]1O.[Na+] (mixture of isomers) [beraprost sodium, Sodium rac-(1R,2R,3aS,8bS)-2,3,3a,8b-tetrahydro-2-hydroxy-1-[(E)-(3S,4RS)-3-hydroxy-4-methyloct-1-en-6-ynyl]-1H-cyclopenta[b][1]benzofuran-5-butanoate]
Changes in Body Weight during Administration of Beraprost Sodium ([1]; Case-A, age 5, month 0): 5.2 kg | Changes in Body Weight during Administration of Beraprost Sodium ([1]; Case-A, month 1): 5.5 kg | Changes in Body Weight during Administration of Beraprost Sodium ([1]; Case-A, month 2): 5.5 kg | Changes in Body Weight during Administration of Beraprost Sodium ([1]; Case-A, month 3): 5.5 kg | Changes in Body Weight during Administration of Beraprost Sodium ([1]; Case-A, month 4): 5.7 kg | Changes in Body Weight during Administration of Beraprost Sodium ([1]; Case-A, month 5): 5.7 kg | Changes in Body Weight during Administration of Beraprost Sodium ([1]; Case-A, month 6): 6.0 kg | Changes in Body Weight during Administration of Beraprost Sodium ([1]; Case-B, age 4, month 0): 3.5 kg | Changes in Body Weight during Administration of Beraprost Sodium ([1]; Case-B, month 1): 3.6 kg | Changes in Body Weight during Administration of Beraprost Sodium ([1]; Case-B, month 2): 3.6 kg | Changes in Body Weight during Administration of Beraprost Sodium ([1]; Case-B, month 3): 3.7 kg | Changes in Body Weight during Administration of Beraprost Sodium ([1]; Case-B, month 4): 3.9 kg | Changes in Body Weight during Administration of Beraprost Sodium ([1]; Case-B, month 5): 4.0 kg | Changes in Body Weight during Administration of Beraprost Sodium ([1]; Case-B, month 6): 4.0 kg | body weight ([1]; Case-B, with amelioration of uremic symptoms): increased | Changes in Body Weight during Administration of Beraprost Sodium ([1]; Case-C, age 16, month −1 (before administration)): 2.8 kg | Changes in Body Weight during Administration of Beraprost Sodium ([1]; Case-C, month 0): 2.7 kg | Changes in Body Weight during Administration of Beraprost Sodium ([1]; Case-C, month 1): 2.8 kg | Changes in Body Weight during Administration of Beraprost Sodium ([1]; Case-C, month 2): 2.9 kg | Changes in Body Weight during Administration of Beraprost Sodium ([1]; Case-C, month 3): 2.9 kg | Changes in Body Weight during Administration of Beraprost Sodium ([1]; Case-C, month 4): 2.9 kg | Changes in Body Weight during Administration of Beraprost Sodium ([1]; Case-C, month 5): 3.0 kg | Changes in Body Weight during Administration of Beraprost Sodium ([1]; Case-C, month 6): 3.0 kg | Changes in Body Weight during Administration of Beraprost Sodium ([1]; Case-D, age 17, month −1 (before administration)): 4.5 kg | body weight ([1]; Case-D, after one month): increased | Changes in Body Weight during Administration of Beraprost Sodium ([1]; Case-D, month 0): 4.5 kg | Changes in Body Weight during Administration of Beraprost Sodium ([1]; Case-D, month 1): 4.5 kg | Changes in Body Weight during Administration of Beraprost Sodium ([1]; Case-D, month 2): 4.9 kg | Changes in Body Weight during Administration of Beraprost Sodium ([1]; Case-D, month 3): 4.9 kg | Changes in Body Weight during Administration of Beraprost Sodium ([1]; Case-D, month 4): 4.9 kg | Changes in Body Weight during Administration of Beraprost Sodium ([1]; Case-D, month 5): 4.9 kg | Changes in Body Weight during Administration of Beraprost Sodium ([1]; Case-E, age 14, combination therapy, month 0): 3.5 kg | Changes in Body Weight during Administration of Beraprost Sodium ([1]; Case-E, combination therapy, month 1): 3.8 kg | Changes in Body Weight during Administration of Beraprost Sodium ([1]; Case-E, combination therapy, month 2): 3.7 kg | Changes in Body Weight during Administration of Beraprost Sodium ([1]; Case-E, combination therapy, month 3): 3.6 kg | Changes in Body Weight during Administration of Beraprost Sodium ([1]; Case-E, combination therapy, month 4): 3.7 kg | Changes in Body Weight during Administration of Beraprost Sodium ([1]; Case-E, combination therapy, month 5): 3.7 kg | Changes in Body Weight during Administration of Beraprost Sodium ([1]; Case-E, combination therapy, month 6): 3.6 kg | Changes in Body Weight during Administration of Beraprost Sodium ([1]; Case-F, age 11, combination therapy, month 0): 4.7 kg | Changes in Body Weight during Administration of Beraprost Sodium ([1]; Case-F, combination therapy, month 1): 5.0 kg | Changes in Body Weight during Administration of Beraprost Sodium ([1]; Case-F, combination therapy, month 2): 5.0 kg | Changes in Body Weight during Administration of Beraprost Sodium ([1]; Case-F, combination therapy, month 3): 5.5 kg | Changes in Body Weight during Administration of Beraprost Sodium ([1]; Case-F, combination therapy, month 4): 5.5 kg | Changes in Body Weight during Administration of Beraprost Sodium ([1]; Case-F, combination therapy, month 5): 5.7 kg | Changes in Body Weight during Administration of Beraprost Sodium ([1]; Case-F, combination therapy, month 6): 5.8 kg | body weight ([1]; Case-G, 40 μg/head/BID, Day 14): 3.83 kg | body weight ([1]; Case-G, 40 μg/head/BID, Day 56): 3.95 kg | body weight ([1]; Case-G, before the administration (baseline)): 3.2 kg | adverse events such as diarrhea, vomiting ([2]; Case-A, 150 μg oral BID, 6 months): no adverse event | adverse events ([2]; Case-B, daily administration continued for 1 and half years): no adverse event has been observed at all | adverse events such as diarrhea, vomiting ([2]; Case-C, 150 μg oral BID alone): no adverse event | adverse events such as diarrhea, vomiting ([2]; Case-D, 150 μg oral BID alone): no adverse event | adverse events such as diarrhea, vomiting ([2]; Case-E, 150 μg oral BID, combination therapy): no adverse event | adverse events such as diarrhea, vomiting ([2]; Case-F, 150 μg oral BID, combination therapy): no adverse event | adverse events such as diarrhea, vomiting ([2]; Case-G, 40 μg/head/BID): no adverse event | clinical score (full points 5) ([3]; 150 μg/capsule oral twice a day alone, first month, 3 points before): 4 points | uremic symptoms ([3]; after start of beraprost sodium alone): quickly remitted and ameliorated | BUN [4]: did not almost change | serum Cre value [4]: continuously increased | adverse events such as diarrhea, vomiting [5]: no adverse event; also recorded: no adverse action | BUN value ([6]; 40 μg/head/BID tablets alone): almost kept constant | Cre ([6]; Day 28): 2.79 mg/dL | Cre ([6]; Day 56): 3.02 mg/dL | onset of nephritis (urinary excretion of albumin) [7]: prevented
